Results from patent US8030442B2, “Treatment of injury to the brain by inhibition of acid sensing ion channels” (priority 2004, dated 2011).
Where two headings read alike, the source gives them in different places.

What was measured:
cortical neurons [1] = experiment: LDH release after 1 hr oxygen-glucose deprivation combined with acidosis; type: cell-based, mouse; conditions: n=8-11
Method: To determine if activation of ASICs in ischemic conditions produced greater neuronal injury, neurons from P1 ASIC1^+/+ and ASIC1^−/− mice were subjected to 1 hr acid treatment under oxygen and glucose deprivation.
(§1) Following anesthesia with halothane, cerebral cortices were dissected from PI ASIC1^+/+ and ASIC1^−/− mice and incubated with 0.05% trypsin-EDTA for 10 min at 37° C. Tissues were then triturated with fire-polished glass pipettes and plated on poly-L-ornithine-coated 24-well plates or 25×25 mm glass coverslips at a density of 2.5×10^5 cells per well or 10^6 cells per coverslip. Neurons were cultured with MEM supplemented with 10% horse serum (for E16 cultures) or Neurobasal medium supplemented with B27 (for P1 cultures) and used for electrophysiology and toxicity studies after 12 days. Glial growth was suppressed by addition of 5-fluoro-2-deoxyuridine and uridine, yielding cultured cells with ˜90% neurons as determined by NeuN and GFAP staining (data not shown).
[…]. Oxygen-glucose deprivation was terminated after 1 hr by replacing the glucose-free ECF with Neurobasal medium and incubating the cultures in a normal cell culture incubator.
Aarts et al. (2003) have recently studied ischemia molded by prolonged oxygen-glucose deprivation (2 hr) but without acidosis. […]

[2] = system: cortical neurons cultured from ASIC+/+ and ASIC1-/- mice; experiment: LDH release in neurons cultured from ASIC+/+ and ASIC1-/- mice; type: cell-based, mouse; conditions: ASIC1-/- neurons, 1 hr 1 mM NMDA+10 μM glycine, Mg2+-free pH 7.4 ECF, n=4
Method: as §1
Cells were treated with either pH 7.4 or 6.0 ECF for 1 hr. LDH release was measured 24 hr after acid incubation. […] Background absorbance at 620 was subtracted.

[3] = system: transient focal ischemia (middle cerebral artery occlusion); conditions: mouse, in vivo; for percentage of the infarct: iv
Method: Ischemia was induced by introducing a coated filament (6.0; Doccol) from the external carotid artery into the internal carotid artery and advancing it into the arterial Will's Circle, thereby occluding the middle cerebral artery (32). Rectal and temporalis muscle temperature was maintained at 37° C.±0.5° C. with a thermostatically controlled heating pad and lamp. Cerebral blood flow was monitored by transcranial laser doppler. All surgical procedures were performed under an operating stereomicroscope.

[4] = mouse, in vivo
Method: We have, therefore, measured brain pH continuously with a fiber optic pH sensor in the ipsilateral and contralateral parietal cortex of mice immediately after the removal of the middle cerebral artery suture, to determine the degree, distribution, and the time course of acidosis following focal ischemia. Cerebral pH was evaluated in sham-operated animals, in vehicle-treated animals, in PcTX venom-treated animals, and in sodium bicarbonate treated animals. Values are mean±SE (n=3 for each group).
(§2) Cerebral blood flow was monitored by transcranial laser doppler. All surgical procedures were performed under an operating stereomicroscope.
For continuous measurement of pH in the brain, a fiber optic pH micro system (pHOptica, WPI) was used. This system has a pH range between 5 and 9, and the resolution is ±0.003 units. A glass-fiber with its pH-sensitive tip ([…]) was stereotaxically implanted into the brain immediately after the middle cerebral artery occlusion at the following coordinates from the bregma: 2.4 mm laterally, 0.1 posteriorly and 2.2 mm deep. pH was continuously measured for 6 h. The instrument was calibrated with standard solutions (pH 4.0, 5.0, 6.0, 7.0, 8.0, and 9.0) before and after the experiments. […] Changes in pH values were evaluated after PcTX and NaHCO3 intracerebroventricularly or intravenous administration 2 hours after occlusion.

[5] = system: 60 min middle cerebral artery occlusion; experiment: Mouse 60 min middle cerebral artery occlusion, memantine with or without PcTX venom, infarct volume; type: in vivo; conditions: n=5
[6] = system: transient focal ischemia (middle cerebral artery occlusion); type: in vivo, mouse; conditions: for percentage of the infarct volume: vehicle 50.6±2.3
Method: To investigate the potential interaction between NMDA and ASIC1a blockade on infarct volume, memantine was administered before or after PcTX administration in rodents subjected to 60 min of middle cerebral artery occlusion and evaluated one day after ischemia induction.
as §2
Rodents were treated with saline, PcTX and/or memantine according to the following schedule: Saline IP administered 30 min after middle cerebral artery occlusion; PcTX 15: (0.5 μL, 500 ng/mL) administered 15 min after middle cerebral artery occlusion; Memantine 30 (1 mL, 10 mg/kg) administered 30 min after middle cerebral artery occlusion; PcTx15 min/Memantine 30, 60 120; PcTX (0.5 μL, 500 ng/mL) administration 15 min after middle cerebral artery occlusion followed by IP Memantine (1 mL, 10 mg/kg) administration 30 min, 60 min, or 120 min after PcTX. Memantinel 5/PcTx 180, 300, 360: Memantine (1 mL, 10 mg/kg) administration IP 15 min after middle cerebral artery occlusion followed by intracerebraventricular PcTX (0.5 μL, 500 ng/mL) 180 min, 300 min, or 360 min after Memantine. N=5 animals per group.
FIG. 18 is a graph presenting exemplary data from experiments measuring the percentage of brain infarct volume as a function of the time (in minutes) of administration of memantine after mid-cerebral artery occlusion, in accordance with aspects of the present teachings. Memantine's time window (1 mL, 10 mg/kg). Memantine (0.1 mL, 10 mg/kg) or saline solution (1 mL) was IP-administered 15 minutes, 1 h, or 3 h after ischemia induction. […] Each column represents the mean±SE of the percentage of the infarct compared to the ipsilateral hemisphere.

cortical neurons [7] = type: cell-based, mouse; conditions: preincubation 1 μM, n=6

**Q.** Which “combined 1 hr oxygen-glucose deprivation/acidosis-induced neuronal injury” value (cortical neurons [1]; 300 μM) does the source give for `COC(=O)[C@@H](N)CCCNC(=N)N[N+](=O)[O-]` [L-NAME] here?
**A.** neither trolox (500 μM) nor L-NAME (300 μM) had significant effect

**Q.** With `CN[C@H](CC(=O)O)C(=O)O` [NMDA] as the molecule, how does the “LDH release at 24 hr, % of maximal” value [2] read?
**A.** 84.8%±1.4%

**Q.** For `O=C([O-])O.[Na+]` [bicarbonate, sodium bicarbonate], which relative infarct volume [3] is on record?
**A.** 34.5±1.27%

**Q.** What about the “percentage of the infarct” value ([3]; 2.5 mg/kg) of the same molecule?
**A.** 61.51±5.03%

**Q.** What about the “percentage of the infarct” value ([3]; 5 mg/kg) of the same molecule?
**A.** 55.4±7.89%

**Q.** And the “brain pH value after administration” value [4]?
**A.** 7.25±0.25

**Q.** What about the “modifying brain pH” value ([4]; iv) of the same molecule?
**A.** less effective

**Q.** Which results are given for `CC12CC3CC(C)(C1)CC(N)(C3)C2` [memantine]?
**A.** infarct volume ([5]; ASIC1-/- mice, memantine ip): 27.7±1.6 mm^3; infarct volume ([5]; ASIC+/+ mice, 10 mg/kg ip, saline 101.4±9.4): 61.6±12.7 mm^3; infarct volume ([5]; memantine 10 mg/kg ip + aCSF icv, control 123.6±5.3): 73.8±6.9 mm^3; percentage of the infarct volume ([6]; 1 mg/kg 1 h after MCAO, n=5): 55.4±5.2; percentage of the infarct volume ([6]; 10 mg/kg 1 h after MCAO, n=5): 41.0±3.4; percentage of the infarct volume ([6]; 30 mg/kg 1 h after MCAO, n=5): 43.4±3.8; survival of treated ischemic mice ([6]; 100 mg/kg, n=5, all the mice): died; infarct volume ([6]; memantine alone ip 1 h after MCAO (time window, FIG. 18), saline 50.6±2.3, n=5): 40.3±4.3%

**Q.** For `C/C=C(/C)C(=O)O[C@H]1C(C)=C2[C@H]([C@@H]1OC(=O)CCCCCCC)[C@@](C)(OC(C)=O)C[C@H](OC(=O)CCC)[C@@]1(O)[C@H]2OC(=O)[C@@]1(C)O` [thapsigargin], which “sustained component of acid-induced Ca2+ increase” value (cortical neurons [7]) is on record?
**A.** partially inhibited

**Q.** For `Cc1c(C)c2c(c(C)c1O)CCC(C)(C(=O)O)O2` (centres unmarked) [trolox], which “combined 1 hr oxygen-glucose deprivation/acidosis-induced neuronal injury” value (cortical neurons [1]; 500 μM) is on record?
**A.** neither trolox (500 μM) nor L-NAME (300 μM) had significant effect
